Measurements reported in patent US12319695B2, “Sulfonamide derivative with fused pyrimidine skeleton, having epidermal growth factor receptor mutation inhibitory effect” (HANMI PHARM. CO., LTD., priority 2018, dated 2025).

System: Ba/F3 EGFR del19/T790M/C797S cells
Test: Ba/F3 EGFR del19/T790M/C797S cell growth inhibition test (CellTiter-Glo, 72 hours);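 note: compounds tested in tenfold steps from 10 µM down to 0.1 nM, with luminescence read on a microplate reader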
Type: cell-based
Settings: Ba/F3 cell line overexpressing EGFR del19/T790M/C797S, 72 hours, CellTiter-Glo; read-out: Ba/F3 EGFR del19/T790M/C797S cells, GI50
Description: Specifically, the cell line stored in a liquid nitrogen tank was taken out, rapidly dissolved at 37° C., and thereafter centrifuged to remove the cryopreservation medium. The recovered cell pellets were well mixed in a culture medium, put into a culture flask, and passaged under conditions of 37° C. and 5% carbon dioxide to stabilize the cells to the logarithmic growth phase. Thereafter, cells were taken from the flask, centrifuged to remove the culture medium, washed with Dulbecco's phosphate buffered saline (DPBS), and then centrifuged again to remove DPBS, and then diluted with a culture medium to have 1×10^5 cells/ml. The diluted cells were dispensed into a 96-well plate at 100 μl per well. […] The DMSO solution containing each compound was diluted with a culture medium to a concentration of 30 μM, and then tenfold serial dilution was used to prepare a solution diluted upto 0.3 nM (in order to reach a final DMSO concentration of 1% or less).
50 μl of a test solution of each compound was added each time to the 96-well plate in which the cells were dispensed, thus reaching a final concentration of 10 μM to 0.1 nM in 150 μl per well. The cells treated with the test solution were cultured under conditions of 37° C. and 5% carbon dioxide for 72 hours. After the 96-well plate in which the cells were cultured was acclimated to room temperature for 30 minutes, CellTiter-Glo® Luminescent Cell Assay Reagent (CTG, Promega) was dispensed at 50 μl per well. After stabilizing luminescence signals for 10 minutes, the luminescence intensity was measured with a microplate reader.
The GI50 value of each compound was calculated using nonlinear regression of GraphPad Prism; log[inhibitor] vs. normalized response analysis.

Q: With `CN1C[C@@H]2CN(c3ccc(Nc4nc(Nc5ccccc5N(C)S(C)(=O)=O)c5cc[nH]c5n4)cc3F)C[C@@H]2C1` [Example 41, N-(2-((2-((3-fluoro-4-((3aR,6aS)-5-methylhexahydropyrrolo[3,4-c]pyrrole-2(1H)-yl)phenyl)amino)-7H-pyrrolo[2,3-d]pyrimidine-4-yl)amino)phenyl)-N-methylmethanesulfonamide] as the molecule, how does the GI50 read?
A: 0.141 µM

Q: With `CCN(c1ccccc1Nc1nc(Nc2ccc(N3CCN(C)CC3)c(F)c2)nc2[nH]ccc12)S(C)(=O)=O` [Example 43, N-ethyl-N-(2-((2-((3-fluoro-4-(4-methylpiperazin-1-yl)phenyl)amino)-7H-pyrrolo[2,3-d]pyrimidine-4-yl)amino)phenyl)methanesulfonamide] as the molecule, how does the GI50 read?
A: 0.037 µM

Q: `CC(C)N(c1ccccc1Nc1nc(Nc2ccc(N3CCN(C)CC3)c(F)c2)nc2[nH]ccc12)S(C)(=O)=O` [Example 44, N-(2-((2-((3-fluoro-4-(4-methylpiperazin-1-yl)phenyl)amino)-7H-pyrrolo[2,3-d]pyrimidine-4-yl)amino)phenyl)-N-isopropylmethanesulfonamide] was tested. Which GI50 did it give?
A: 0.072 µM

Q: For `CN1CCN(c2ccc(Nc3nc(Nc4ccccc4N(C4CC4)S(C)(=O)=O)c4cc[nH]c4n3)cc2F)CC1` [Example 45, N-cyclopropyl-N-(2-((2-((3-fluoro-4-(4-methylpiperazin-1-yl)phenyl)amino)-7H-pyrrolo[2,3-d]pyrimidine-4-yl)amino)phenyl)methanesulfonamide], which GI50 is on record?
A: 0.064 µM

Q: For `CCS(=O)(=O)N(C)c1ccccc1Nc1nc(Nc2ccc(N3CCN(C)CC3)c(F)c2)nc2[nH]ccc12` [Example 46, N-(2-((2-((3-fluoro-4-(4-methylpiperazin-1-yl)phenyl)amino)-7H-pyrrolo[2,3-d]pyrimidine-4-yl)amino)phenyl)-N-methylethanesulfonamide], which GI50 is on record?
A: 0.016 µM

Q: For `CC(C)S(=O)(=O)N(C)c1ccccc1Nc1nc(Nc2ccc(N3CCN(C)CC3)c(F)c2)nc2[nH]ccc12` [Example 47, N-(2-((2-((3-fluoro-4-(4-methylpiperazin-1-yl)phenyl)amino)-7H-pyrrolo[2,3-d]pyrimidine-4-yl)amino)phenyl)-N-methylpropan-2-sulfonamide], which GI50 is on record?
A: 0.049 µM

Q: Which GI50 does the source give for `CN1CCN(c2ccc(Nc3nc(Nc4ccccc4N(C)S(=O)(=O)C4CC4)c4cc[nH]c4n3)cc2F)CC1` [Example 48, N-(2-((2-((3-fluoro-4-(4-methylpiperazin-1-yl)phenyl)amino)-7H-pyrrolo[2,3-d]pyrimidine-4-yl)amino)phenyl)-N-methylcyclopropanesulfonamide] here?
A: 0.03 µM

Q: Which GI50 does the source give for `CCN1CCN(c2ccc(Nc3nc(Nc4ccccc4N(CC)S(C)(=O)=O)c4cc[nH]c4n3)cc2F)CC1` [Example 50, N-ethyl-N-(2-((2-((4-(4-ethylpiperazin-1-yl)-3-fluorophenyl)amino)-7H-pyrrolo[2,3-d]pyrimidine-4-yl)amino)phenyl)methanesulfonamide] here?
A: 0.026 µM

Q: Which GI50 does the source give for `CCN1CCN(c2ccc(Nc3nc(Nc4ccccc4N(C)S(=O)(=O)CC)c4cc[nH]c4n3)cc2F)CC1` [Example 51, N-(2-((2-((4-(4-ethylpiperazin-1-yl)-3-fluorophenyl)amino)-7H-pyrrolo[2,3-d]pyrimidine-4-yl)amino)phenyl)-N-methylethanesulfonamide] here?
A: 0.025 µM

Q: `CCN1CCN(c2ccc(Nc3nc(Nc4ccccc4N(CC)S(=O)(=O)CC)c4cc[nH]c4n3)cc2F)CC1` [Example 52] was tested. Which GI50 did it give?
A: 0.119 µM

Q: Which GI50 does the source give for `CN1CCN(c2ccc(Nc3nc(Nc4ccccc4N(C)S(C)(=O)=O)c4c(Cl)c[nH]c4n3)cc2F)CC1` [Example 57, N-(2-((5-chloro-2-((3-fluoro-4-(4-methylpiperazin-1-yl)phenyl)amino)-7H-pyrrolo[2,3-d]pyrimidine-4-yl)amino)phenyl)-N-methylmethanesulfonamide] here?
A: 0.0079 µM

Q: For `CN1CCN(c2ccc(Nc3nc(Nc4ccccc4N(C)S(C)(=O)=O)c4c(Cl)c[nH]c4n3)c(F)c2F)CC1` [Example 58, N-(2-((5-chloro-2-((2,3-difluoro-4-(4-methylpiperazin-1-yl)phenyl)amino)-7H-pyrrolo[2,3-d]pyrimidine-4-yl)amino)phenyl)-N-methylmethanesulfonamide], which GI50 is on record?
A: 0.093 µM

Q: Which GI50 does the source give for `CN1CCN(c2ccc(Nc3nc(Nc4ccccc4N(C)S(C)(=O)=O)c4c(Cl)c[nH]c4n3)cn2)CC1` [Example 59, N-(2-((5-chloro-2-((6-(4-methylpiperazin-1-yl)pyridin-3-yl)amino)-7H-pyrrolo[2,3-d]pyrimidine-4-yl)amino)phenyl)-N-methylmethanesulfonamide] here?
A: 0.041 µM

Q: With `Cc1c[nH]c2nc(Nc3ccc(N4CCN(C)CC4)c(F)c3)nc(Nc3ccccc3N(C)S(C)(=O)=O)c12` [Example 60, N-(2-((2-((3-fluoro-4-(4-methylpiperazin-1-yl)phenyl)amino)-5-methyl-7H-pyrrolo[2,3-d]pyrimidine-4-yl)amino)phenyl)-N-methylmethanesulfonamide] as the molecule, how does the GI50 read?
A: 0.015 µM

Q: Which GI50 does the source give for `CN1CCN(c2ccc(Nc3nc(Nc4ccccc4N(C)S(C)(=O)=O)c4c(C#N)c[nH]c4n3)cc2F)CC1` [Example 61, N-(2-((5-cyano-2-((3-fluoro-4-(4-methylpiperazin-1-yl)phenyl)amino)-7H-pyrrolo[2,3-d]pyrimidine-4-yl)amino)phenyl)-N-methylmethanesulfonamide] here?
A: 0.046 µM

Q: Which GI50 does the source give for `CN1CCN(c2ccc(Nc3nc(Nc4ccccc4N(C)S(C)(=O)=O)c4c(F)c[nH]c4n3)cc2F)CC1` [Example 62, N-(2-((5-fluoro-2-((3-fluoro-4-(4-methylpiperazin-1-yl)phenyl)amino)-7H-pyrrolo[2,3-d]pyrimidine-4-yl)amino)phenyl)-N-methylmethanesulfonamide] here?
A: 0.046 µM

Q: With `CCN1CCN(c2ccc(Nc3nc(Nc4ccccc4N(C)S(C)(=O)=O)c4c(F)c[nH]c4n3)cc2F)CC1` [Example 63, N-(2-((2-((4-(4-ethylpiperazin-1-yl)-3-fluorophenyl)amino)-5-fluoro-7H-pyrrolo[2,3-d]pyrimidine-4-yl)amino)phenyl)-N-methylmethanesulfonamide] as the molecule, how does the GI50 read?
A: 0.064 µM

Q: For `CN1CCN(C2CCN(c3ccc(Nc4nc(Nc5ccccc5N(C)S(C)(=O)=O)c5c(F)c[nH]c5n4)cc3F)CC2)CC1` [Example 64, N-(2-((5-fluoro-2-((3-fluoro-4-(4-(4-methylpiperazin-1-yl)piperidin-1-yl)phenyl)amino)-7H-pyrrolo[2,3-d]pyrimidine-4-yl)amino)phenyl)-N-methylmethanesulfonamide], which GI50 is on record?
A: 0.028 µM

Q: `CN1CCN(c2ccc(Nc3nc(Nc4ccccc4N(C)S(C)(=O)=O)c4nc[nH]c4n3)cc2F)CC1` [Example 66, N-(2-((2-((3-fluoro-4-(4-methylpiperazin-1-yl)phenyl)amino)-9H-purine-6-yl)amino)phenyl)-N-methylmethanesulfonamide] was tested. Which GI50 did it give?
A: 0.063 µM

Q: For `CN1CCN(c2ccc(Nc3nc(Nc4ccccc4N(C)S(C)(=O)=O)c4cn[nH]c4n3)cc2F)CC1` [Example 67, N-(2-((6-((3-fluoro-4-(4-methylpiperazin-1-yl)phenyl)amino)-1H-pyrazolo[3,4-d]pyrimidine-4-yl)amino)phenyl)-N-methylmethanesulfonamide], which GI50 is on record?
A: 0.254 µM
